Source: patent publication EP2592154A1, “Immobilization products and methods for the identification of histone demethylase interacting molecules and for the purification of histone demethylase proteins” (CELLZOME AG, priority 2011, dated 2013)

Molecular target: T1, endogenous UTY (Homo sapiens, UniProt O14607)
T1 construct: endogenous UTY; endogenous in cells; host or cells: THP-1 nuclear extract mixed 1:1 with HEK293 lysate
Assay: Bead competition binding assay using immobilized example 1, concentration response curve (HEK293/THP-1 lysate mix)
Details: competition of binding to immobilized example 1, 0.156-40 µM, HEK293 lysate mixed 1:1 with THP-1 nuclear extract
Protocol: Then the affinity matrix with the immobilized example 1 was added to capture proteins that were not interacting with the previously added free reference compound. Beads were separated from the lysate and bead bound proteins were eluted in SDS sample buffer and subsequently separated by SDS-Polyacrylamide gel electrophoresis. The gel was stained with colloidal Coomassie and stained areas of each gel lane were cut out and subjected to in-gel proteolytic digestion with trypsin. Peptides originating from the different gel areas were labeled with isobaric tagging reagents (TMT reagents, Thermofisher) as shown in Table 6.
JMJD3 DNA encoding the catalytic domain (residues 1141-1682, lacking residues 1637-1675; GenBank BC009994) was amplified by PCR and sub cloned into pCDNA3.1 (+) (Invitrogen, V79020) using BamHI and EcoRI A Flag tag was included in the 5' primer, downstream of the BamHI cloning site. […]
HEK293 cells were homogenized in a Potter S homogenizer in lysis buffer: 50 mM Tris-HCl, 0.8% NP40, 5% glycerol, 150 mM NaCl, 1.5 mM MgCl2, 25 mM NaF, 1 mM sodium vanadate, 1 mM DTT, pH 7.5. […] The supernatant was transferred again to a fresh 50 ml falcon tube, the protein concentration was determined by a Bradford assay (BioRad) and samples containing 50 mg of protein per aliquot were prepared. […]

T1 sequence (O14607 whole entry): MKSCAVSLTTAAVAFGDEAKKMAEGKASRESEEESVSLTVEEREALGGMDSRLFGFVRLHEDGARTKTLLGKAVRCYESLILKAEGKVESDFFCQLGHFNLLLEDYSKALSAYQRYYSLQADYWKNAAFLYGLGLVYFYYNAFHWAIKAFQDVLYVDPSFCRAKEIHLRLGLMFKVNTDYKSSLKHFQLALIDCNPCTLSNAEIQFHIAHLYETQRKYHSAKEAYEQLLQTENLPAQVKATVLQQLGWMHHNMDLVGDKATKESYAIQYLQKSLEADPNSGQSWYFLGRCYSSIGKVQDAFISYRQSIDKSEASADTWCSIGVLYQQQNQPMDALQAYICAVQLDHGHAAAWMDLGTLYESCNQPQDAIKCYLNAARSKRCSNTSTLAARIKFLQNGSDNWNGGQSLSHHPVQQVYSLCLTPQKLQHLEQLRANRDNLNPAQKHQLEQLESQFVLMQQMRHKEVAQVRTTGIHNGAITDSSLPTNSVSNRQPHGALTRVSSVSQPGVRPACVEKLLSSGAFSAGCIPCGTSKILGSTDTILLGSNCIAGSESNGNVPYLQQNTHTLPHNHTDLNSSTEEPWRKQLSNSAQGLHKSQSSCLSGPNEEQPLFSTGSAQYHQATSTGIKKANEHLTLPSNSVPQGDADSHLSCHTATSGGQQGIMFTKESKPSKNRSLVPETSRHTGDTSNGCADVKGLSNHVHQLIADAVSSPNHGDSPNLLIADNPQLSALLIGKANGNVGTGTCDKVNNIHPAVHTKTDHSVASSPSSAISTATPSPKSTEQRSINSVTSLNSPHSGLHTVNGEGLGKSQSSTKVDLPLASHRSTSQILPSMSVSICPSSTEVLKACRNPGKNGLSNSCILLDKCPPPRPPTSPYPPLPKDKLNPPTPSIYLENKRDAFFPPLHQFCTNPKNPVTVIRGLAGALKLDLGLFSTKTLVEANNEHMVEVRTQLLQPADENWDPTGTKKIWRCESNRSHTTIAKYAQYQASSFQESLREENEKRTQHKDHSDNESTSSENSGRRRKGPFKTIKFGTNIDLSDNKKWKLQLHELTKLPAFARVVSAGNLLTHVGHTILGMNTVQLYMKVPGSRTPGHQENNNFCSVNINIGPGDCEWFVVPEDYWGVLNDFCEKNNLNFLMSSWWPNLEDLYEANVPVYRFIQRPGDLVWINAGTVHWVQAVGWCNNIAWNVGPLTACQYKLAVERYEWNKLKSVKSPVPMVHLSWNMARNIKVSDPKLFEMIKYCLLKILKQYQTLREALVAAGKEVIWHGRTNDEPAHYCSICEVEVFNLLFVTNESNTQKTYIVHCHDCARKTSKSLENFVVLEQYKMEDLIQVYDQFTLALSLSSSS

- IC50: 1400 nM
SMILES: O=C(O)CCNc1cc(N2CCc3ccccc3CC2)nc(-c2ccccn2)n1 [Reference example 2, N-[2-(2-pyridinyl)-6-(1,2,4,5-tetrahydro-3H-3-benzazepin-3-yl)-4-pyrimidinyl]-β-alanine]
